The source of these data is patent US4137224A (Schering Corporation, priority 1977, dated 1979).

In general, LD50 refers to the dose expected to kill half of the subjects tested. Lower therefore signals a more toxic substance. The term MIC denotes the lowest concentration that inhibits growth of the organism.

Data set [1] concerns Aeromonas sp. W-10. Nature of the data set: Resistance of Aeromonas sp. W-10 to antibacterial agents. In kind it is cell-based. The note with it: in words. The method, then: The growth and physiological characteristics of Aeromonas sp. All observations were made after seven (7) days of incubation at 28° C. Color designations are assigned according to the classification in the Color Harmony Manual (1958), Container Corporation of America. The designates G, S, C and R used herein stand for growth, surface, color and reaction, respectively.

In data set [2] the test system is Trichophyton mentagrophytes. Kind of data set: In vivo activity against Trichophyton mentagrophytes infection in guinea pigs. The note with it: 1% in polyethylene glycol 400, topical, twice daily for ten days. The method, then: The skin of fifteen guinea pigs is abraided and infected with a standard culture of Trichophyton mentagrophytes. The infected animals are then separated into three groups containing five animals each. Suspensions containing 1% of the respective antibiotics in polyethylene glycol 400 are prepared. Two of the three groups are treated topically, twice daily for ten days commencing three days after infection. The third group (controls) remained untreated throughout the test. All of the animals are tested for infection by culture and observed for skin lesions for a total of 21 days.

Data set [3] is described as follows: Toxicity (LD50), oral or subcutaneous administration. Particulars: in vivo.
Data set [4] has as its system Saccharomyces cerevisiae ATCC 9763. Kind of data set: Agar diffusion assay against Antibiotic 20562 standard. The format is cell-based. The method, then: The broths are assayed against a standard solution of Antibiotic 20562 having an assigned potency of 1000 mcg/mg. The standard solution is diluted with 10% potassium phosphate buffer (pH 6.0) to make solutions having antibiotic concentrations of 3.2, 4.0, 5.0, 6.25 and 7.8 mcg/ml. The assay is performed substantially as set forth in the Federal Register, Title 21, Chapter 436.105.

Data set [5] concerns Candida albicans. Kind of data set: In vivo activity in mice infected intravenously with Candida albicans. Set-up: species or system male CFl mice; Candida albicans. Particulars: 48 hours after infection, read-out: PD50. How it is done:
PD50 values were determined 48 hours after infection and are as follows: […]

The subject of data set [6] is Candida albicans. Nature of the data set: In vitro MIC against strains of Candida albicans in Sabouraud dextrose broth. The format is cell-based. The method, then:
Antibiotic 20562 was tested in vitro in Sabourraud dextrose broth against strains of Candida albicans, the Minimum Inhibitory Concentration (MIC) being set forth in Table IV below: […]

For data set [7], the system named is Candida albicans (Wisconsin strain). Kind of data set: Topical in vivo activity against Candida albicans intravaginal infection in hamsters. Set-up: species or system female hamsters; Candida albicans. The note with it: three day treatment. How it is done: Using a culture of Candida albicans (Wisconsin strain), in Sabourrauds dextrose broth, infect intravaginally, five groups of six female hamsters. Forty-eight and seventy-two hours after infection, make smears of the infected animals and culture the smears. […] (96 hours after infection), make additional smears, culture and commence treatment. One group of six animals (controls) receives no treatment and, therefore, remains infected throughout the test. The remaining four groups of animals are treated with Antibiotic 20562, as 1%, 5%, 10% and 15% suspensions, respectively, the vehicle for suspension being administered on a cotton swab. At the end of the three day treatment the 1%, 5% and 10% groups are 60% cured, the 15% group is completely (100%) cured.

Setting [8] is: Example 2 step B, after chromatography.
[9] abbreviates: Example 3 steps C and D, after chromatography.
Where [10] appears, read: isolated antibiotics, crystalline from methanol.
Setting [11] is: sc, single subcutaneous dose one hour after infection.
[12] abbreviates: single oral dose one hour after infection.

Values after ≈ are worked out from the molar mass of the structure shown. Where two headings read alike, the source gives them in different places. *1 amine or outer side, *2 acyl side, *3 side chain or, on linkers, in order; H or OH if unused. Where a SMILES comes first, the peptide text is derived from it. Bridges are numbered along the chain shown (N, C = ends). [ ]: non-standard residue; d: D form. The star is where a group is joined. NMeT = CN[CH](C(=O)O)[CH](C)O; X1 = CCCCCCCCCCCC(O)CC(=O)*; X2 = CC=C(N[*:1])C(=O)[*:2]; X3 = OCC1OC(*)C(O)C(O)C1O

With `CC(C)c1nc2nc(N)nc(N)c2nc1C(C)C` [0/129, 2,4-diamino-6,7-diisopropylpteridine], in data set [1], the “sensitivity of Aeromonas sp. W-10 to the vibriostatic compound” value is reported as “insensitive”.
Regarding `CC=C(NC(=O)CC(O)CCCCCCCCCCC)C(=O)NC1C(=O)NC(C(C)O)C(=O)NC(Cc2ccc(O)cc2)C(=O)NC(=CC)C(=O)NC(CCC(N)=O)C(=O)NCC(=O)N(C)C(C(C)O)C(=O)NC(Cc2cnc[nH]2)C(=O)OC1C` (centres unmarked) [Antibiotic 20561] (X1-[X2]TTY[X2]QG[NMeT]H; ester 2-C; configuration not given here), in data set [2], the “Days to become negative, Culture” value came to 4.8 days. Besides, the “Days to become negative, Lesion” value in data set [2] worked out at 6.3 days. Further, the LD50 was 1000 mg/kg in data set [3] (po) and above 1000 mg/kg in data set [3] (sc). Also, the “assay (potency)” value in data set [4] (setting [8]) is 800 µg/mg; in data set [4] (setting [9]) it was 800 µg/mg; in data set [4] (setting [10]), “about 800 mcg/mg”. Also, the ED50 in data set [5] (setting [11]) worked out at 4 mg/kg; in data set [5] (setting [12]), 25 mg/kg.
Consider `CC=C(NC(=O)CC(O)CCCCCCCCCCC)C(=O)NC1C(=O)NC(C(C)O)C(=O)NC(Cc2ccc(O)cc2)C(=O)NC(=CC)C(=O)NC(CCC(N)=O)C(=O)NCC(=O)N(C)C(C(C)OC2OC(CO)C(O)C(O)C2O)C(=O)NC(Cc2cnc[nH]2)C(=O)OC1C` (centres unmarked) [Antibiotic 20562] (X1-[X2]TTY[X2]QG[NMeT](X3)H; ester 2-C; configuration not given here), for which the “Days to become negative, Culture” value in data set [2] stood at 5.8 days. Moreover, the “Days to become negative, Lesion” value in data set [2] was found to be 9.0 days. The values for the LD50 in data set [3] (po) and in data set [3] (sc) were 800 mg/kg and 600 mg/kg, respectively. Also, the “assay (potency)” value was 800 µg/mg in data set [4] (setting [8]), 1000 µg/mg in data set [4] (setting [9]) and “about 1000 mcg/mg” in data set [4] (setting [10]). In addition, the MIC in data set [6] (Candida albicans, strain Burke, read-out: MIC) was 0.075 µg/mL (≈ 0.0552 µM); in data set [6] (strain 29), 0.075 µg/mL (≈ 0.0552 µM); in data set [6] (strain Bevan), 0.075 µg/mL (≈ 0.0552 µM); in data set [6] (strain Collins) it was 0.075 µg/mL (≈ 0.0552 µM); in data set [6] (strain Fix), 0.075 µg/mL (≈ 0.0552 µM); in data set [6] (strain Lush), 0.075 µg/mL (≈ 0.0552 µM). Moreover, the MIC in data set [6] (strain Merkel), in data set [6] (strain Newcomb), in data set [6] (strain No. 1), in data set [6] (strain Raub), in data set [6] (strain Sperk) and in data set [6] (strain Wisconsin) was 0.075 µg/mL (≈ 0.0552 µM) throughout. Further, the ED50 in data set [5] (setting [11]) is 4 mg/kg; in data set [5] (setting [12]) it was 25 mg/kg. For the same compound, the cured in data set [7] (1% suspension) turned out to be 60%; in data set [7] (5% suspension), 60%; in data set [7] (10% suspension) it was 60%; in data set [7] (15% suspension) it was 100%.
